Test results as given in patent US20060241177A1, “Novel compounds, pharmaceutical compositions containing same, and methods of use for same” (priority 2002, published 2006).
≈ marks a conversion by molar mass, not a printed value.

Tests used:
[1] = tested on: MCF-7 human breast cancer cells; test: XTT cytotoxicity assay; assay type: cell-based; details: MCF7, MCF-7 cells, 72 hours
Method: The XTT assay is a non-radioactive alternative for the [^51Cr] release cytotoxicity assay. XTT is a tetrazolium salt that is reduced to a formazan dye only by metabolically active, viable cells. The reduction of XTT is measured spectrophotometrically as OD490-OD650.
To measure the cytotoxicity of specific compounds against cancer cells, 9×10^3 MCF-7 human breast cancer cells, obtained from the American Type Culture Collection are plated per well in 96 well plates in DMEM medium with 10% fetal bovine serum, msulin, penicillin, and streptomycin. Following overnight culture at 37° C. and 5% CO2, the compounds to be tested, dissolved in DMSO, are added to the wells in 1 μl volume at the following concentrations: 80, 40, 20, 10, 5, 2.5, 1.25, and 0.625 μg/ml in triplicate. Additional concentrations are tested if required. 1 μl of DMSO is added to triplicate wells are the vehicle control. C75 is run at 40, 20, […], and 5 μg/ml in triplicate as positive controls.
After 72 hours of incubation, cells are incubated for 4 hours with the XTT reagent as per manufacturer's instructions (Cell Proliferation Kit II (XTT) Roche). Plates are read at OD490 and OD650 on a Molecular Devices SpectraMax Plus Spectrophotometer. Three wells containing the All reagent without cells serve as the plate blank. XTT data are reported as OD490-OD650. Averages and standard error of the mean are computed using SOFTmax Pro software ([…]).
The IC50 for the compounds is defined as the concentration of drug leading to a 50% reduction in OD490-OD650 compared to controls. The OD490-OD650 are computed by the SOFTmax PRO software Molecular Devices) for each compound concentration. IC50 is calculated by linear regression, plotting the FAS activity as percent of control versus drug concentrations. Linear regression, best-fit line, r^2, and 95% confidence intervals are determined using Prism Version 3.0 (Graph Pad Software).

[2] = molecular target: T1, purified human FAS (Homo sapiens, UniProt P49327); test: Measurement of FAS enzymatic activity (NADPH oxidation) and IC50; assay type: biochemical; details: purified human FAS from ZR-75-1 cells, malonyl-CoA dependent NADPH oxidation
T1 construct: Human FAS was purified from cultured ZR-75-1 human breast cancer cells; endogenous in cells; host or cells: ZR-75-1 human breast cancer cells (ATCC); endogenous enzyme purified by PEG precipitation and Mono Q chromatography
T1 sequence (P49327 whole entry): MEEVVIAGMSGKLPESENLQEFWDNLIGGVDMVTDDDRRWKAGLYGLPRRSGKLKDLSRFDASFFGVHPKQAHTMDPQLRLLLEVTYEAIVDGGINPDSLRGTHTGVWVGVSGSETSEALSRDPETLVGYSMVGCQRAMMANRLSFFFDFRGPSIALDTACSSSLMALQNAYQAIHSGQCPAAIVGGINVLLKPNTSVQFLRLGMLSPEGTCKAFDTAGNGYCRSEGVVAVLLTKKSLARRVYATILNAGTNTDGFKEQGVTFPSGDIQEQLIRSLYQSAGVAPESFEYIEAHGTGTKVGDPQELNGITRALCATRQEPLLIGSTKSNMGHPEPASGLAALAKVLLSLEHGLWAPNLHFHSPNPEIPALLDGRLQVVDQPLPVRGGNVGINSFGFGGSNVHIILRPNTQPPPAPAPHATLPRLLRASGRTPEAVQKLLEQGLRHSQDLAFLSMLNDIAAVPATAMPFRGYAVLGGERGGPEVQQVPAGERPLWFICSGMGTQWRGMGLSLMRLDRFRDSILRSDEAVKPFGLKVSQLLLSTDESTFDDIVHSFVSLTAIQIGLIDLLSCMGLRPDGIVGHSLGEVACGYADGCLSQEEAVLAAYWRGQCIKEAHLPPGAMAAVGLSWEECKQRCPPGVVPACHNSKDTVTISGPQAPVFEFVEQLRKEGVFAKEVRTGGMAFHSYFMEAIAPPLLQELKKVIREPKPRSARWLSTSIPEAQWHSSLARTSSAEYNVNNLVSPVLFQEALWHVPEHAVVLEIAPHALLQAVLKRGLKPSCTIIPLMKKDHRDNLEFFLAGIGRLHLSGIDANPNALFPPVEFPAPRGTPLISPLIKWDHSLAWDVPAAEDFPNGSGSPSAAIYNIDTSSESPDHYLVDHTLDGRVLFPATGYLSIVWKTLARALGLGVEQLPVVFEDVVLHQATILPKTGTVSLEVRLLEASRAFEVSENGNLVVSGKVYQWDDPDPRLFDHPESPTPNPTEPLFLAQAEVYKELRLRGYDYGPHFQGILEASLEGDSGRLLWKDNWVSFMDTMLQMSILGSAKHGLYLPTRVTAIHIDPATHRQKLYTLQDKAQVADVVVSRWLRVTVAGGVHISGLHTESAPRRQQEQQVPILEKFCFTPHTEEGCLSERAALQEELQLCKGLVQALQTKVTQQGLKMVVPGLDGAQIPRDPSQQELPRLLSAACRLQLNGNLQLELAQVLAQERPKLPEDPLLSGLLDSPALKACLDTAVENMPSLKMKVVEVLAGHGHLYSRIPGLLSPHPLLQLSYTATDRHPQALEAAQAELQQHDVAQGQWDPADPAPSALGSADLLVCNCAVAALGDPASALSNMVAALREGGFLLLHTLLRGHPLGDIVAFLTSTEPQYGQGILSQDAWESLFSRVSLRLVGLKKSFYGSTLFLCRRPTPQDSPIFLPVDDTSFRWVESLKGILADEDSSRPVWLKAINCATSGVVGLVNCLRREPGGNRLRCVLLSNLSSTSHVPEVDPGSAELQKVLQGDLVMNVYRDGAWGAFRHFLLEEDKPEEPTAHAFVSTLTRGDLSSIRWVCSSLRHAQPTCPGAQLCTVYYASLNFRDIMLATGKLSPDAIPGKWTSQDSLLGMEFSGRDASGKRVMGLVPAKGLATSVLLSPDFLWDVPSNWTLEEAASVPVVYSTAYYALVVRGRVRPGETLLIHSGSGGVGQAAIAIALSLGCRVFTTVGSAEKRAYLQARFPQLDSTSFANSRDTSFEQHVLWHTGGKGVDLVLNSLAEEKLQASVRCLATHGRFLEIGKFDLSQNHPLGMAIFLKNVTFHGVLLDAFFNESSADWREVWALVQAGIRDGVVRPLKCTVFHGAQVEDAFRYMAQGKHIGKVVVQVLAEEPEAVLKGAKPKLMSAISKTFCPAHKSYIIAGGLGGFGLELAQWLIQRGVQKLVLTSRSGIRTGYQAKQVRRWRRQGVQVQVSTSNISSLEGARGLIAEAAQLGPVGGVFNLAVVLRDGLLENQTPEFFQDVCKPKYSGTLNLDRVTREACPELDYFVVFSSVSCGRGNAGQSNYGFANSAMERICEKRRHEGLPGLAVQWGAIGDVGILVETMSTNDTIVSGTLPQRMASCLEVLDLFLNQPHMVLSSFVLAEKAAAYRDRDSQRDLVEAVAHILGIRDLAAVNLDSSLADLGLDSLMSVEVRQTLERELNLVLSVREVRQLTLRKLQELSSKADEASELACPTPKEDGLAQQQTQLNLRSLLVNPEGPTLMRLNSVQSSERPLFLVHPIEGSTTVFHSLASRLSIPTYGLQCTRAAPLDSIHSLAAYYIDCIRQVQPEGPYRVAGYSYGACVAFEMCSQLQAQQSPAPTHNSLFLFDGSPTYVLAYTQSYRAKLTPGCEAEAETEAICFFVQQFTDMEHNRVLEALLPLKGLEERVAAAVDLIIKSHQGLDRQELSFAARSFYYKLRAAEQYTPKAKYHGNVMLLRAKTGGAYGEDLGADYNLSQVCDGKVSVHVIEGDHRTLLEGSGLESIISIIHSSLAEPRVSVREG
Method: Human FAS was purified from cultured ZR-75-1 human breast cancer cells obtained from the American Type Culture Collection. The procedure, adapted from Linn et al., 1981, and Kuhajda et al, 1994, utilizes hypotonic lysis, successive polyethyleneglycol (PEG) precipitations, and anion exchange chromatography. ZR-75-1 cells are cultured at 37° C. with 5% CO2 in RPMI culture medium with 10% fetal bovine serum, penicillin and streptomycin.
Ten T150 flasks of confluent cells are lysed with 1.5 ml lysis buffer (20 mM Tris-HCl pH 7.5, 1 mM EDTA, 0.1 mM phenylmethanesulfonyl fluoride (PMSF), 0.1% Igepal CA-630) and dounce homogenized on ice for 20 strokes. The lysate is centrifuged in JA-20 rotor (Beckman) at 20,000 rpm for 30 minutes at 4° C. and the supernatant is brought to 42 ml with lysis buffer. A solution of 50% PEG 8000 in lysis buffer is added slowly to the supernatant to a final concentration of 7.5%. After rocking for 60 minutes at 4° C., the solution is centrifiged in JA-20 rotor (Beckman) at 15,000 rpm for 30 minutes at 4° C. Solid PEG 8000 is then added to the supernatant to a final concentration of 15%. After the rocking and centrifugation is repeated as above, the pellet is resuspended overnight at 4° C. in 10 ml of Buffer A (20 mM K2HPO4, pH 7.4). After 0.45 μM filtration, the protein solution is applied to a Mono Q 5/5 anion exchange column (Pharmacia). The column is washed for 15 minutes with buffer A at 1 ml/minute, and bound material is eluted with a linear 60-ml gradient over 60 minutes to 1 M KCl. FAS (MW˜270 kD) typically elutes at 0.25 M KCl in three 0.5 ml fractions identified using 4-15% SDS-PAGE with Coomassie G250 stain (Bio-Rad). FAS protein concentration is determined using the Coomassie Plus Protein Assay Reagent (Pierce) according to manufacturer's specifications using BSA as a standard This procedure results in substantially pure preparations of FAS (>95%) as judged by Coomassie-stained gels.
Measurement of FAS Enzymatic Activity and Determination of the IC50 of the Compounds
FAS activity is measured by monitoring the malonyl-CoA dependent oxidation of NADPH spectrophotometrically at OD340 in 96-well plates (Dils et al and Arslanian et at, 1975). Each well contains 2 μg purified FAS, 100 mM K2HPO4, pH 6.5, 1 mM dithiothreitol (Sigma), and 187.5 μM β-NADPH (Sigma). Stock solutions of inhibitors are prepared in DMSO at 2, 1, and 0.5 mg/ml resulting in final concentrations of 20, 10, and 5 μg/ml when 1 μl of stock is added per well. For each experiment, cerulenin (Sigma) is run as a positive control along with DMSO controls, inhibitors, and blanks (no FAS enzyme) all in duplicate.
The assay is performed on a Molecular Devices SpectraMax Plus Spectrophotometer. The plate containing FAS, buffers, inhibitors, and controls are placed in the spectrophotometer heated to 37° C. Using the kinetic protocol, the wells are blanked on duplicate wells containing 100 μl of 100 mM K2HPO4, pH 6.5 and the plate is read at OD340 at 10 sec intervals for 5 minutes to measure any malonyl-CoA independent oxidation of NADPH. The plate is removed from the spectrophotometer and malonyl-CoA (67.4 μM, final concentration per well) and acetyl-CoA (61.8 μM, final concentration per well) are added to each well except to the blanks. The plate is read again as above with the kinetic protocol to measure the malonyl-CoA dependent NADPH oxidation. The difference between the Δ OD340 for the malonyl-CoA dependent and non-malonyl-CoA dependent NADPH oxidation is the specific FAS activity. Because of the purity of the FAS preparation, non-malonyl-CoA dependent NADPH oxidation is negligible.
The IC50 for the compounds against FAS is determined by plotting the Δ OD340 for each inhibitor concentration tested, performing linear regression and computing the best-fit line, r^2 values, and 95% confidence intervals. The concentration of compound yielding 50% inhibition of FAS is the IC50. […]

SMILES	FAS (IC50) [2]	IC50 [1] [mg/L]	IC50 [2] [µM]
C=CCNC(=O)C1=C(C)C(=O)O[C@H]1CCCCCCCC	–	27.8 ± 3.8 (≈ 94.7 µM)	317
C=CCNC(=O)[C@@H]1C(=C)C(=O)O[C@H]1CCCCCCCC (racemic)	Neg	0.81 ± 0.01 (≈ 2.76 µM)	–
C=CCNC(=O)[C@H]1[C@H](CCCCCCCC)OC(=O)[C@@H]1C (racemic)	–	20.8 ± 7.1 (≈ 70.4 µM)	450
C=CCNC(=O)[C@@H]1C(=C)C(=O)O[C@H]1CCCCCC (racemic)	–	1.6 ± 0.1 (≈ 6.03 µM)	305
C=CCNC(=O)[C@@H]1C(=C)C(=O)O[C@H]1CCCC (racemic)	–	2.4 ± 0.2 (≈ 10.1 µM)	451
C=C1C(=O)O[C@@H](CCCCCCCC)[C@@H]1C(=O)NCC(=O)OC (racemic)	Neg	2 ± 0.5 (≈ 6.15 µM)	–
C=C1C(=O)O[C@@H](CCCCCCCC)[C@@H]1C(=O)NCC(=O)O (racemic)	Neg	> 80	–

Further lines, with some results ahead:

FAS (IC50) [2]	SMILES	IC50 [1] [mg/L]	IC50 [2] [µM]
Neg	CCCCCCCCC1OC(=O)[C@@H](C)[C@H]1C(=O)O (stereo partly shown)	> 80	–
Neg	CCCCCCCCC1OC(=O)[C@H](C)[C@H]1C(=O)O (stereo partly shown)	> 80	–
Neg	C=CCNC(=O)[C@H]1[C@H](CCCCCCCC)OC(=O)[C@H]1C (racemic)	59.4 ± 6.4 (≈ 201 µM)	–
Neg	C=C1C(=O)O[C@@H](CCCCCCCC)[C@@H]1C(=O)NCCO (racemic)	4.1 ± 2.2 (≈ 13.8 µM)	–
